Publication PMC3985843 (Journal of the American Chemical Society, 2014)

How the values were obtained:
Assay type in all cases: cell-based
[1] = tested on: P. falciparum 7G8 (CQR) strain; assay: in vitro antimalarial activity, chloroquine-resistant 7G8 strain; conditions: Plasmodium falciparum, 7G8, read-out: IC50 against 7G8
[2] = tested on: P. falciparum Dd2 (CQR) strain; assay: in vitro antimalarial activity, chloroquine-resistant Dd2 strain; conditions: Plasmodium falciparum, DD2, read-out: IC50 against Dd2
[3] = tested on: P. falciparum D6 (CQS) strain; assay: in vitro antimalarial activity, chloroquine-sensitive D6 strain; conditions: Plasmodium falciparum, D6, read-out: IC50 against D6

In the case of `CO[C@@H]1CC(c2ccc[nH]2)=N[C@]12O[C@@H](C)C[C@@H]1CCCCCCCc3ccc([nH]3)[C@H]12` [compound 5, marineosin A], the IC50 [1] is reported as 199 nM, the IC50 [2] is reported as 127 nM and the IC50 [3] is reported as 138 nM.

With `CCN(CC)CCCC(C)Nc1ccnc2cc(Cl)ccc12` (stereo not drawn) [chloroquine] the IC50 [1] was 131 nM, the IC50 [2] was 110 nM and the IC50 [3] was 14.3 nM.
